Source: patent US8313901B2, “Methods and compositions related to the modulation of riboswitches” (Yale University, priority 2005, dated 2012)

Key:
[1] = tested on: glmS ribozyme; assay: Electrophoretic in-line probing of analog binding to glmS ribozyme
[2] = tested on: glmS ribozyme; assay: High-throughput FRET fluorescence screen of substrate cleavage by bimolecular glmS ribozyme (Example 1, Method 1); format: biochemical; conditions: for Fl21 h/Flg h: fluorescence ratio, high-throughput fluorescence screen, 21 h
Experimental: The naturally occurring glmS RNA element catalyzes self-cleavage in the presence of modest concentrations (>100 μM) of glucosamine-6-phosphate (Gln6P, FIG. 1A). In the absence of this important metabolite, no cleavage activity is observed. Although the natural sequence of the glmS element forms a unimolecular cis-cleaving ribozyme, active glmS ribozyme can also be constructed as a biomolecular […] ribozyme. In this format, the cleaved strand, termed the substrate, includes the 5′ base pairs that form half of the pairing element 1 (P1) and the conserved nucleotides upstream P1 (FIG. 1B). The non-cleaved ribozyme strand includes the 3′ half of P1 and the remaining sequence of the glmS element. Using this biomolecular format, the 16-nucleotide substrate strand was labeled at the 3′ and the 5′ ends with the fluorescently probes fluorescein (F1) and cy3, respectively. In an uncleaved substrate RNA, emission of the excited state fluorescein is quenched by the enforced proximity of the cy3 quencher. Upon cleavage in the presence of the Gln6P system, the binding of Gln6P (or related derivatives) to the glmS riboswitch can be rapidly screened using standard high-throughput techniques.
After a minimum of 10 hours incubation, the fluorescence intensity of FI increased ˜4 fold in the presence of 160 μM glucosamine-6-phosphate, whereas no observable change was detected in the absence of effector (FIG. 2). […] To further explore the discriminatory limits of this detection system, a library of sixteen Gln6P derivatives was also screened. The resulting glmS binding activities correspond well with the binding activities independently determined by gel electrophoresis methods (Table 1). Detection systems are also being used to screen a novel library of 20,000 compounds (Microsource Discovery Systems, Inc.) unrelated to Gln6P for binding the glmS ribozyme.

[3] = biological target: ribD RNA; conditions: cited from earlier work
[4] = tested on: bimolecular glmS ribozyme; assay: High-throughput glmS assay, FRET in 384-well plates (Example 2); format: biochemical, S. aureus; conditions: for relative fluorescence (relative to time zero): 200 μM
Experimental: High-throughput glmS assay. High-throughput fluorescence assay validation and screening was performed in 384-well black polypropylene plates (Corning part number 3677) in a 10 μL solution of 50 mM HEPES (pH 7.5 at 25° C.), 10 mM MgCl2, and 200 mM KCl, with 0.01% SDS where indicated in the text. A Tecan Aquarius multichannel pipettor (Tecan Group, LTD, Switzerland) was used for automated liquid handling. In a typical experiment, a reaction mixture containing buffer and both RNA domains was transferred into the assay plates with the liquid handler, the fluorescence was measured, and the reaction was initiated by the addition of ˜50 nl of either GlcN6P, an analog of GlcN6P, or a library compound suspended at 10 mM in DMSO using the Tecan pin tool (˜50 μM final concentration of compound). Plates were sealed with non-breathable sealing tape and protected from light for the specified incubation time, at which point the plate was briefly centrifuged and the fluorescence measured. All multiplate fluorescence measurements were conducted with a Wallach Envision (Perkin Elmer, Wellesly, Mass.) plate reader with a 480 nm excitation filter (30 nm bandwidth) and a 535 nm emission filter (25 nm bandwidth).
To enable FRET detection of cleavage, the substrate was synthesized with a 5-(and 6-)-carboxyfluorescein (5/6-FAM) donor at the 3′ end and a Cy3™ acceptor at the 5′ end. When excited at 485 nm, the 5/6-FAM donor normally emits at a maximum wavelength of 526 nm. When the substrate strand is intact, however, the fluorescence of 5/6-FAM is reduced presumably due to quenching by the proximal Cy3™ acceptor. After addition of GlcN6P and cleavage of the substrate strand, the two product strands dissociate, relieving the proximity of 5/6-FAM and Cy3™, with a concomitant increase of 5/6-FAM fluorescence. Similar fluorescence-based systems have been used to detect ribozyme cleavage in real time (Singh et al., RNA 1999; 5: 1348-1356; Hanne et al., Nucleosides Nucleotides 1998; 17: 1835-1850). Using this FRET detection strategy, the addition of 40 μM GlcN6P induces an increase in the fluorescence signal of greater than 6 fold within 20 minutes (FIG. 7B). The modest burst in fluorescence increase could be due to a conformational change in the substrate that occurs upon ligand binding. Tertiary contacts between ribozyme and substrate would constrain the substrate to a greater extent compared to that caused by the short base paired region, thus increasing the average distance between donor and acceptor. Importantly, no fluorescence increase was observed over this time course in the absence of either GlcN6P or the ribozyme.
To facilitate rapid solution-based measurement of cleavage for large compound libraries, the assay conditions were optimized for automated liquid handling and fluorescence measurement in 384-well microplates. To reduce demand for enzyme and substrate RNAs, the concentrations of these molecules were varied to determine the minimal concentration of each that can be used to give a reproducible and statistically significant increase in the fluorescent signal. At 10 nM of each strand, a 4-fold increase in fluorescence was observed after 68 hours when 100 μM GlcN6P was present (FIG. 7C). […] At incubation times less than 48 hours, the increase in fluorescence was noticeably less, most likely because the concentration of the two RNA strands is well below the measured dissociation constant of 0.2 μM, slowing the observed cleavage rate. […]

[5] = tested on: bimolecular glmS ribozyme; assay: Single reaction FRET-based kinetic assay of glmS cleavage; format: biochemical, S. aureus; conditions: 40 μM GlcN6P, within 20 minutes
Experimental: Low-throughput glmS kinetic analyses. All kinetic assays were conducted in 50 mM HEPES (pH 7.5 at 25° C.), 10 mM MgCl2, and 200 mM KCl. To initiate the reaction, GlcN6P was added to give a final concentration of 200 μM. Kinetic assays with radiolabeled substrate were performed as described previously (Soukup, Nucleic Acids Res 2006; 34: 968-975). Rate constants were established by plotting the natural logarithm of the fraction of substrate remaining uncleaved versus time, and then determining the negative slope of the resulting line. For the highest rate constants, only the initial phase of the plots were used because ˜20% of the RNA substrate remained uncleavable. […]
To enable FRET detection of cleavage, the substrate was synthesized with a 5-(and 6-)-carboxyfluorescein (5/6-FAM) donor at the 3′ end and a Cy3™ acceptor at the 5′ end. […] When the substrate strand is intact, however, the fluorescence of 5/6-FAM is reduced presumably due to quenching by the proximal Cy3™ acceptor. After addition of GlcN6P and cleavage of the substrate strand, the two product strands dissociate, relieving the proximity of 5/6-FAM and Cy3™, with a concomitant increase of 5/6-FAM fluorescence. Similar fluorescence-based systems have been used to detect ribozyme cleavage in real time (Singh et al., RNA 1999; 5: 1348-1356; Hanne et al., Nucleosides Nucleotides 1998; 17: 1835-1850). […]

[6] = tested on: glmS riboswitch; conditions: cited from earlier work
[7] = tested on: bimolecular glmS ribozyme; assay: Kinetic assay with 5'-radiolabeled substrate; format: biochemical, S. aureus; conditions: 0.5 μM ribozyme, 200 μM GlcN6P, saturating substrate, 25° C.
Experimental: Low-throughput glmS kinetic analyses. All kinetic assays were conducted in 50 mM HEPES (pH 7.5 at 25° C.), 10 mM MgCl2, and 200 mM KCl. To initiate the reaction, GlcN6P was added to give a final concentration of 200 μM. Kinetic assays with radiolabeled substrate were performed as described previously (Soukup, Nucleic Acids Res 2006; 34: 968-975). Rate constants were established by plotting the natural logarithm of the fraction of substrate remaining uncleaved versus time, and then determining the negative slope of the resulting line. For the highest rate constants, only the initial phase of the plots were used because ˜20% of the RNA substrate remained uncleavable. Single reaction FRET-based kinetic assays were performed with λexcit=488 nm (slit width=1 nm), λemit=523 nm (slit width=8 nm).
Although the glmS ribozyme sequence is highly conserved among many bacterial species, the S. aureus sequence was chosen for screening development because of its clinical importance. To facilitate detection of cleavage, the natural self-cleaving glmS ribozyme was converted to a bimolecular ribozyme (FIG. 6B) in which separate substrate and ribozyme oligonucleotides associate via a truncated P1 stem. […]

[8] = tested on: unimolecular glmS ribozyme; conditions: cited from earlier work
[9] = tested on: glmS ribozyme; assay: PAGE / electrophoretic analysis of glmS ribozyme activation; format: biochemical, S. aureus; conditions: after incubating for 2 hours
Experimental: This cutoff for functional compounds (“hits”) of 2.5-fold increased fluorescence represents a statistically significant 18 standard deviations over the mean fluorescence value in the absence of ligand (“NL”). […] A similar case exists for glucosamine, which induces a 3.0-fold increase in fluorescence after 44 hours, even though its measured affinity for the ribozyme is more than 100-fold lower than GlcN6P (McCarthy et al., Chem Biol 2005; 12: 1221-1226). Thus, the fluorescent report from the high-throughput screen accurately reflects binding activity for the glmS ribozyme.
Each of the five compounds identified was retested for glmS activation with either the fluorescence screen or by electrophoretic methods. […] Moreover, these types of infrequent false-positive hits have been observed for other fluorescence-based high-throughput screens (Zhang et al., J Biomol Screen 2005; 10: 695-704) and can readily be confirmed or refuted in our case with the secondary ribozyme cleavage assay (Soukup and Breaker, RNA 1999; 5: 1308-1325). One possible explanation for the false positives is that they quench or otherwise modify the fluorescent label on the RNA over the 44 hour time course, or that the compounds become fluorescent over time. Nevertheless, the identification of glucosamine confirms that this screen can identify even low affinity glmS-activating compounds from complex compound libraries.

CC(=O)N[C@H]1C(O)O[C@H](COP(=O)(O)O)[C@@H](O)[C@@H]1O (some centres unmarked) [AcNGln 6P]
Activity by electrophoretic in-line probing [1]: Weakly | Fl21 h/Flg h [2]: 2.28

Cc1cc2nc3c(=O)[nH]c(=O)nc-3n(C[C@H](O)[C@H](O)[C@H](O)COP(=O)(O)O)c2cc1C [FMN, flavin mononucleotide]
Kd ([3]; read-out: apparent KD): ~0.005 µM

O=P(O)(O)OC[C@H]1OC(O)[C@H](O)[C@@H](O)[C@H]1O (some centres unmarked) [Gal6P]
Fl21 h/Flg h [2]: 1.69

N[C@@H]1[C@@H](O)[C@H](O)[C@@H](COP(=O)(O)O)O[C@@H]1O [Gln6P com]
Activity by electrophoretic in-line probing [1]: Yes | Fl21 h/Flg h [2]: 2.24

N[C@H]1C(O)O[C@H](COP(=O)(O)O)[C@@H](O)[C@@H]1O (some centres unmarked) [Gln6P, glucosamine-6-phosphate]
increase in fluorescence ([4]; 10 nM of each strand, 100 μM GlcN6P, after 68 hours, 0.01% SDS): 4 fold | relative fluorescence (relative to time zero) ([4]; 21 hours): 3.5 | relative fluorescence (relative to time zero) ([4]; 44 hours): 3.4 | increase in fluorescence ([4]; screen of library of twelve GlcN6P analogs): 3.5 fold | Activity by electrophoretic in-line probing [1]: Yes | increase in the fluorescence signal [5]: greater than 6 fold | increase in fluorescence intensity of Fl ([2]; 160 μM glucosamine-6-phosphate, minimum of 10 hours incubation): ~4 fold | Fl21 h/Flg h [2]: 3.36 | concentration that activates cleavage ([6]; concentrations as low as): ≥ 1 µM | single-turnover rate constant ([6]; previously reported): 1 min⁻¹ | Kd ([6]; read-out: apparent KD): 200 µM | apparent rate constant of cleavage [7]: 0.25 min⁻¹

N[C@H]1C(O)O[C@H](CO)[C@@H](O)[C@@H]1O (some centres unmarked) [Gln com]
Activity by electrophoretic in-line probing [1]: Yes | Fl21 h/Flg h [2]: 1.87

C[N+](C)(C)C1C(O)OC(COP(=O)(O)O)C(O)C1O (centres unmarked) [Me3N-Gln 6P]
Activity by electrophoretic in-line probing [1]: No | Fl21 h/Flg h [2]: 1.27

CNC1C(O)OC(COP(=O)(O)O)C(O)C1O (centres unmarked) [MeN-Gln 6P]
Activity by electrophoretic in-line probing [1]: Yes | Fl21 h/Flg h [2]: 3.49

N[C@H]1C(O)O[C@H](CO)[C@@H](O)[C@@H]1O (some centres unmarked) [glucosamine]
increase in fluorescence ([4]; after 44 hours): 3.0 fold | activity in previously described glmS screen ([8]; after 30 minutes): no observable activity | activation of the glmS ribozyme [8]: cannot activate it | cleavage on a gel [9]: stimulates detectable cleavage

O=C[C@H](O)[C@@H](O)[C@H](O)[C@H](O)COP(=O)(O)O [glucose-6-phosphate]
activation of the glmS ribozyme [8]: cannot activate it

Cc1cc2nc3c(=O)[nH]c(=O)nc-3n(C[C@H](O)[C@H](O)[C@H](O)CO)c2cc1C [riboflavin]
discrimination against ligand relative to FMN [3]: approximately three orders of magnitude

COC1OC(COP(=O)(O)O)C(O)C(O)C1N (stereo not drawn) [β-MeO-Gln 6P]
Activity by electrophoretic in-line probing [1]: No | Fl21 h/Flg h [2]: 1.02
